Measured values as given in patent US8933122B2, “Use of cationic surfactants as sporicidal agents” (Laboratorios Miret, S.A., priority 2008, dated 2015).

How the values were obtained:
[1] = system: endospores from Geobacillus stearothermophilus ATCC 12980; experiment: Sporicidal activity, quantitative suspension test EN 13704:2002 (Example 3); type: cell-based; settings: 40° C.; for calculated reduction (R) R=N×0.1/Na: 60 minutes; for Test of LAE sporicidal activity (Na), surviving spores count: water as interfering substance, N 1.3 × 10^6 cfu/mL
Experimental: (§1) The determination of the sporicidal activity of LAE has been carried out according to the European standard EN 13704:2002: “Chemical disinfectant—Quantitative suspension test for the evaluation of sporicidal activity of chemical disinfectants used in food, industrial, domestic and institutional areas—Test method and requirements”.
A test suspension containing endospores from Geobacillus stearothermophilus ATCC 12980 was prepared from a culture grown on a nutrient agar, to which additional sporulation enhancement ingredients were added. Plates were harvested with sterile water and endospores were purified by repeated centrifugations and resuspensions in water.
(§2) Neutralizer. The neutralizer mixture consisted of 30 g/L polysorbate 80 in water. The solution was intended to neutralize any chemicals so that these would not affect subsequent growth of the bacteria.
The sporicidal activity of a given product is defined by its capacity to reduce at least by 10^3 the amount of Geobacillus stearothermophilus bacterial spores in suspension, in the conditions established in the method.
(§3) The product was in contact with a suspension of bacterial spores during an established period of time of 60 minutes. An interfering substance can be added to the suspension, in this case water. Next, the effect of the product is neutralized by adding a neutralizer previously chosen, preceding to the surviving spores count.
• 1. Spore suspension obtained from a spored-form culture of Geobacillus stearothermophilus • 2. Count of the spore suspension of Geobacillus stearothermophilus. • 3. The possible toxic effect of the neutralizer on the spores in the absence of the product is valued. • 4. Validation of the dilution-neutralisation method. • 5. Evaluation of the inhibitory sporicide effect of the product. • 6. Result calculation. Results: Results are expressed as the reduction of viability of the spore suspension in regards to:
Tabulation of the Method and Test Validation Results (at 40° C.): […]

[2] = system: endospores from Thermoanaerobacterium thermosaccharolyticum ATCC 7956; experiment: Sporicidal activity, quantitative suspension test EN 13704:2002 (Example 4); type: cell-based; settings: 20° C.; for calculated reduction R=N×0.1/Na: 60 minutes; for Test of LAE sporicidal activity (Na), surviving spores count: water as interfering substance, N 0.65 × 10^6 cfu/mL
Experimental: as §1
A test suspension containing endospores from Thermoanaerobacterium thermosaccharolyticum ATCC 7956 was prepared from a culture grown on a nutrient agar, to which additional sporulation enhancement ingredients were added. Plates were harvested with sterile water and endospores were purified by repeated centrifugations and resuspensions in water.
as §2
The sporicidal activity of a given product is defined by its capacity to reduce at least by 10^3 the amount of Thermoanaerobacterium thermosaccharolyticum bacterial spores in suspension, in the conditions established in the method.
as §3
• 1. Spore suspension obtained from a spored-form culture of Thermoanaerobacterium thermosaccharolyticum. • 2. Count of the spore suspension of Thermoanaerobacterium thermosaccharolyticum. • 3. The possible toxic effect of the neutralizer on the spores in the absence of the product is valued. • 4. Validation of the dilution-neutralisation method. • 5. Evaluation of the inhibitory sporicide effect of the product. • 6. Result calculation. Results: Results are expressed as the reduction of viability of the spore suspension in regards to:
Tabulation of the Method and Test Validation Results (at 20° C.):
A product is considered sporicidal if its use results in a reduction (R) in the number of Thermoanaerobacterium thermosaccharolyticum bacterial spores equal to or above 10^3 after being in contact for 60 minutes in the conditions set in EN 13704:2002.

[3] = system: Arthrobacter oxydans ATCC 8010; settings: Gram + Bacteria; cited from earlier work
[4] = system: Bacillus cereus var mycoide ATCC 11778; settings: Gram + Bacteria; cited from earlier work
[5] = system: Listeria monocytogenes ATCC 7644; settings: Gram + Bacteria; cited from earlier work
[6] = system: Micrococcus luteus ATCC 9631; settings: Gram + Bacteria; cited from earlier work
[7] = system: Lactobacillus delbrueckii ssp lactis CECT 372; settings: Gram + Bacteria; cited from earlier work
[8] = system: Leuconostoc mesenteroides CETC 912; settings: Gram + Bacteria; cited from earlier work
[9] = system: Alcaligenes faecalis ATCC 8750; settings: Gram − Bacteria; cited from earlier work
[10] = system: Bordetella bronchiseptica ATCC 4617; settings: Gram − Bacteria; cited from earlier work
[11] = system: Citrobacter freundii ATCC 22636; settings: Gram − Bacteria; cited from earlier work
[12] = system: Escherichia coli 0157H7; settings: Gram − Bacteria; cited from earlier work
[13] = system: Klebsiella pneumoniae var pneumoniae CECT 178; settings: Gram − Bacteria; cited from earlier work
[14] = system: Pseudomonas aeruginosa ATCC 9027; settings: Gram − Bacteria; cited from earlier work
[15] = system: Mycobacterium phlei ATCC 41423; settings: listed under Gram − Bacteria; cited from earlier work
[16] = system: Aspergillus niger ATCC 14604; settings: Fungi; cited from earlier work
[17] = system: Gliocadium virens ATCC 4645; settings: Fungi; cited from earlier work
[18] = system: Penicillium chrysogenum CECT 2802; settings: Fungi; cited from earlier work
[19] = system: Penicillium funiculosum CECT 2914; settings: Fungi; cited from earlier work
[20] = system: Candida albicans ATCC 10231; settings: Yeast; cited from earlier work
[21] = system: Rhodotorula rubra CECT 1158; settings: Yeast; cited from earlier work
[22] = system: Saccharomyces cerevisiae ATCC 9763; settings: Yeast; cited from earlier work
[23] = rats; cited from earlier work
[24] = 60 minutes contact, EN 13704:2002

Compound: CCCCCCCCCCCC(=O)N[C@@H](CCCN=C(N)N)C(=O)OCC.Cl [LAE, ethyl ester of the lauramide of the arginine monohydrochloride]
- calculated reduction (R) R=N×0.1/Na ([1]; 58 μg/ml of LAE): < 10^3 cfu/mL
- calculated reduction (R) R=N×0.1/Na ([1]; 115 μg/ml of LAE): < 10^3 cfu/mL
- calculated reduction (R) R=N×0.1/Na ([1]; 173 μg/ml of LAE): > 10^3 cfu/mL
- calculated reduction (R) R=N×0.1/Na ([1]; 230 μg/ml of LAE): > 10^3 cfu/mL
- calculated reduction (R) R=N×0.1/Na ([1]; 460 μg/ml of LAE): > 10^3 cfu/mL
- concentration displaying sporicidal activity (reduction equal to or above 10^3) [1, 24]: ≥ 173 μg/ml
- Test of LAE sporicidal activity (Na), surviving spores count ([1]; LAE 58 μg/mL, 60 minutes contact): 1.0 × 10^5 cfu/mL
- Test of LAE sporicidal activity (Na), surviving spores count ([1]; LAE 115 μg/mL, 60 minutes contact): 5.2 × 10^4 cfu/mL
- Test of LAE sporicidal activity (Na), surviving spores count ([1]; LAE 173 μg/mL, 60 minutes contact): <10^2 cfu/mL
- Test of LAE sporicidal activity (Na), surviving spores count ([1]; LAE 230 μg/mL, 60 minutes contact): <10^2 cfu/mL
- Test of LAE sporicidal activity (Na), surviving spores count ([1]; LAE 460 μg/mL, 60 minutes contact): <10^2 cfu/mL
- calculated reduction R=N×0.1/Na ([2]; 32 μg/mL of LAE): < 10^3 cfu/mL
- calculated reduction R=N×0.1/Na ([2]; 51 μg/mL of LAE): < 10^3 cfu/mL
- calculated reduction R=N×0.1/Na ([2]; 102 μg/mL of LAE): > 10^3 cfu/mL
- calculated reduction R=N×0.1/Na ([2]; 205 μg/mL of LAE): > 10^3 cfu/mL
- concentration displaying sporicidal activity (reduction equal to or above 10^3) [2, 24]: ≥ 102 μg/mL
- Test of LAE sporicidal activity (Na), surviving spores count ([2]; LAE 32 μg/mL, 60 minutes contact): 2.7 × 10^3 cfu/mL
- Test of LAE sporicidal activity (Na), surviving spores count ([2]; LAE 51 μg/mL, 60 minutes contact): 1.6 × 10^3 cfu/mL
- Test of LAE sporicidal activity (Na), surviving spores count ([2]; LAE 102 μg/mL, 60 minutes contact): <10^2 cfu/mL
- Test of LAE sporicidal activity (Na), surviving spores count ([2]; LAE 205 μg/mL, 60 minutes contact): <10^2 cfu/mL
- M.I.C. [3]: 64 ppm
- M.I.C. [4]: 32 ppm
- M.I.C. [5]: 10 ppm
- M.I.C. [6]: 128 ppm
- M.I.C. [7]: 16 ppm
- M.I.C. [8]: 32 ppm
- M.I.C. [9]: 64 ppm
- M.I.C. [10]: 128 ppm
- M.I.C. [11]: 64 ppm
- M.I.C. [12]: 20 ppm
- M.I.C. [13]: 32 ppm
- M.I.C. [14]: 64 ppm
- M.I.C. [15]: 2 ppm
- M.I.C. [16]: 32 ppm
- M.I.C. [17]: 32 ppm
- M.I.C. [18]: 128 ppm
- M.I.C. [19]: 16 ppm
- M.I.C. [20]: 16 ppm
- M.I.C. [21]: 16 ppm
- M.I.C. [22]: 32 ppm
- absorption and metabolism [23]: fast absorption and metabolization into naturally-occurring amino acids and the fatty acid lauric acid, which are eventually excreted as carbon dioxide and urea
